# Laboratory results: US9000022B2 (Exelixis Patent Company LLC, priority 2005, dated 2015)
# System: LXRα and/or LXRβ
# Assay: Co-transfection assay (LXRE luciferase reporter, CV-1 cells)
# Type: cell-based, human
# Conditions: tested as described in Example 33; IC50 or EC50 for LXRα and/or LXRβ, isoform not specified; read-out: activity (IC50 or EC50 for LXR)
# Procedure, shortened: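 CV-1 cells transiently co-transfected with full-length human LXRα or LXRβ plus RXRα, an LXRE×1-Tk-luciferase reporter and a β-galactosidase control. Compounds incubated 20 h at 37 °C (≤1% DMSO; screen at 10 μM final); luciferase read after lysis. EC50/IC50 from 8-point half-log curves (4 wells per point, ≥3 experiments); efficacy relative to a reference agonist high control and DMSO.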
row,"IC50 or EC50 (potency, activation or inhibition)",SMILES
1,< 1000 nM,Cc1cc(-c2ccc(CO)c(S(C)(=O)=O)c2)ccc1-n1cc(C(C)(C)O)nc1-c1ccccc1C(F)(F)F [Example 171]
2,< 1000 nM,"Cc1cc(-c2ccc(CO)c(S(C)(=O)=O)c2)ccc1-n1cc(C(C)(C)O)nc1-c1c(F)cccc1Cl [Example 172, 2-(2-(2-chloro-6-fluorophenyl)-1-(4′-(hydroxymethyl)-3-methyl-3′-(methylsulfonyl)biphenyl-4-yl)-1H-imidazol-4-yl)propan-2-ol]"
3,< 1000 nM,"Cc1cc(-c2ccc(CO)c(S(C)(=O)=O)c2)ccc1-n1cc(C(C)(C)O)nc1-c1cccc(F)c1Cl [Example 173, 2-(2-(2-chloro-3-fluorophenyl)-1-(4′-(hydroxymethyl)-3-methyl-3′-(methylsulfonyl)biphenyl-4-yl)-1H-imidazol-4-yl)propan-2-ol]"
4,< 1000 nM,"Cc1cc(-c2ccc(CO)c(S(C)(=O)=O)c2)ccc1-n1cc(C(C)(C)O)nc1-c1c(Cl)cccc1Cl [Example 174, 2-(2-(2,6-dichlorophenyl)-1-(4′-(hydroxymethyl)-3-methyl-3′-(methylsulfonyl)biphenyl-4-yl)-1H-imidazol-4-yl)propan-2-ol]"
5,< 1000 nM,"Cc1cc(-c2ccc(CO)c(S(C)(=O)=O)c2)ccc1-n1cc(C(C)(C)O)nc1-c1cccc(Cl)c1C [Example 175, 2-(2-(3-chloro-2-methylphenyl)-1-(4′-(hydroxymethyl)-3-methyl-3′-(methylsulfonyl)biphenyl-4-yl)-1H-imidazol-4-yl)propan-2-ol]"
6,< 1000 nM,"Cc1cc(-c2ccc(CO)c(S(C)(=O)=O)c2)ccc1-n1cc(C(C)(C)O)nc1-c1cccc(Cl)c1Cl [Example 176, 2-(2-(2,3-dichlorophenyl)-1-(4′-(hydroxymethyl)-3-methyl-3′-(methylsulfonyl)biphenyl-4-yl)-1H-imidazol-4-yl)propan-2-ol]"
7,< 1000 nM,Cc1cc(-c2ccc(CO)c(S(C)(=O)=O)c2)ccc1-n1cc(C(C)(C)O)nc1-c1c(C)cccc1Cl [Example 177]
8,< 1000 nM,"Cc1cc(-c2ccc(CO)c(S(C)(=O)=O)c2)ccc1-n1cc(C(C)(C)O)nc1-c1c(F)cccc1F [Example 178, 2-(2-(2,6-difluorophenyl)-1-(4′-(hydroxymethyl)-3-methyl-3′-(methylsulfonyl)biphenyl-4-yl)-1H-imidazol-4-yl)propan-2-ol]"
9,< 1000 nM,"Cc1cc(-c2cccc(S(C)(=O)=O)c2)ccc1-n1cc(C(C)(C)O)nc1-c1cccc(Cl)c1Cl [Example 179, 2-(2-(2,3-dichlorophenyl)-1-(3-methyl-3′-(methylsulfonyl)biphenyl-4-yl)-1H-imidazol-4-yl)propan-2-ol]"
10,< 1000 nM,"CCS(=O)(=O)c1cccc(-c2ccc(-n3cc(C(C)(C)O)nc3-c3cccc(Cl)c3Cl)c(C)c2)c1 [Example 180, 2-(2-(2,3-dichlorophenyl)-1-(3′-(ethylsulfonyl)-3-methylbiphenyl-4-yl)-1H-imidazol-4-yl)propan-2-ol]"
11,< 1000 nM,"Cc1cc(-c2cccc(S(C)(=O)=O)c2)ccc1-n1cc(C(C)(C)O)nc1-c1c(Cl)cccc1Cl [Example 181, 2-(2-(2,6-dichlorophenyl)-1-(3-methyl-3′-(methylsulfonyl)biphenyl-4-yl)-1H-imidazol-4-yl)propan-2-ol]"
12,< 1000 nM,"CCS(=O)(=O)c1cccc(-c2ccc(-n3cc(C(C)(C)O)nc3-c3c(Cl)cccc3Cl)c(C)c2)c1 [Example 182, 2-(2-(2,6-dichlorophenyl)-1-(3′-(ethylsulfonyl)-3-methylbiphenyl-4-yl)-1H-imidazol-4-yl)propan-2-ol]"
13,< 1000 nM,"Cc1cc(-c2cccc(S(C)(=O)=O)c2)ccc1-n1cc(C(C)(C)O)nc1-c1ccccc1C(F)(F)F [Example 183, 2-(1-(3-methyl-3′-(methyl-sulfonyl)biphenyl-4-yl)-2-(2-(trifluoromethyl)phenyl)-1H-imidazol-4-yl)propan-2-ol]"
14,< 1000 nM,"CCS(=O)(=O)c1cccc(-c2ccc(-n3cc(C(C)(C)O)nc3-c3ccccc3C(F)(F)F)c(C)c2)c1 [Example 184, 2-(1-(3′-(ethylsulfonyl)-3-methyl-biphenyl-4-yl)-2-(2-(trifluoro-methyl)phenyl)-1H-imidazol-4-yl)propan-2-ol]"
15,< 1000 nM,"Cc1cc(-c2cccc(S(C)(=O)=O)c2)ccc1-n1cc(C(C)(C)O)nc1-c1cccc(F)c1Cl [Example 185, 2-(2-(2-chloro-3-fluorophenyl)-1-(3-methyl-3′-(methylsulfonyl)biphenyl-4-yl)-1H-imidazol-4-yl)propan-2-ol]"
16,< 1000 nM,"CCS(=O)(=O)c1cccc(-c2ccc(-n3cc(C(C)(C)O)nc3-c3cccc(F)c3Cl)c(C)c2)c1 [Example 186, 2-(2-(2-chloro-3-fluorophenyl)-1-(3′-(ethylsulfonyl)-3-methylbiphenyl-4-yl)-1H-imidazol-4-yl)propan-2-ol]"

row,"IC50 or EC50 (potency, activation or inhibition)",SMILES
1,< 1000 nM,"Cc1cc(-c2cccc(S(C)(=O)=O)c2)ccc1-n1cc(C(C)(C)O)nc1-c1c(F)cccc1Cl [Example 187, 2-(2-(2-chloro-6-fluorophenyl)-1-(3-methyl-3′-(methylsulfonyl)biphenyl-4-yl)-1H-imidazol-4-yl)propan-2-ol]"
2,< 1000 nM,"CCS(=O)(=O)c1cccc(-c2ccc(-n3cc(C(C)(C)O)nc3-c3c(F)cccc3Cl)c(C)c2)c1 [Example 188, 2-(2-(2-chloro-6-fluorophenyl)-1-(3′-(ethylsulfonyl)-3-methylbiphenyl-4-yl)-1H-imidazol-4-yl)propan-2-ol]"
3,< 1000 nM,"Cc1cc(-c2cccc(S(C)(=O)=O)c2)ccc1-n1cc(C(C)(C)O)nc1-c1cccc(Cl)c1C [Example 189, 2-(2-(3-chloro-2-methylphenyl)-1-(3-methyl-3′-(methylsulfonyl)biphenyl-4-yl)-1H-imidazol-4-yl)propan-2-ol]"
4,< 1000 nM,"CCS(=O)(=O)c1cccc(-c2ccc(-n3cc(C(C)(C)O)nc3-c3cccc(Cl)c3C)c(C)c2)c1 [Example 190, 2-(2-(3-chloro-2-methylphenyl)-1-(3′-(ethylsulfonyl)-3-methylbiphenyl-4-yl)-1H-imidazol-4-yl)propan-2-ol]"
5,< 1000 nM,"Cc1cc(-c2cccc(S(C)(=O)=O)c2)ccc1-n1cc(C(C)(C)O)nc1-c1c(C)cccc1Cl [Example 191, 2-(2-(2-chloro-6-methylphenyl)-1-(3-methyl-3′-(methylsulfonyl)biphenyl-4-yl)-1H-imidazol-4-yl)propan-2-ol]"
6,< 1000 nM,"CCS(=O)(=O)c1cccc(-c2ccc(-n3cc(C(C)(C)O)nc3-c3c(C)cccc3Cl)c(C)c2)c1 [Example 192, 2-(2-(2-chloro-6-methylphenyl)-1-(3′-(ethylsulfonyl)-3-methylbiphenyl-4-yl)-1H-imidazol-4-yl)propan-2-ol]"
7,< 1000 nM,"Cc1cc(-c2cccc(S(C)(=O)=O)c2)ccc1-n1cc(C(C)(C)O)nc1-c1c(F)cccc1F [Example 193, 2-(2-(2,6-difluorophenyl)-1-(3-methyl-3′-(methylsulfonyl)biphenyl-4-yl)-1H-imidazol-4-yl)propan-2-ol]"
8,< 1000 nM,"CCS(=O)(=O)c1cccc(-c2ccc(-n3cc(C(C)(C)O)nc3-c3c(F)cccc3F)c(C)c2)c1 [Example 194, 2-(2-(2,6-difluorophenyl)-1-(3′-(ethylsulfonyl)-3-methylbiphenyl-4-yl)-1H-imidazol-4-yl)propan-2-ol]"
9,< 1000 nM,"Cc1cc(-c2cccc(S(C)(=O)=O)c2)ccc1-n1cc(C(C)(C)O)nc1-c1ccccc1C(C)C [Example 195, 2-(2-(2-isopropylphenyl)-1-(3-methyl-3′-(methylsulfonyl)biphenyl-4-yl)-1H-imidazol-4-yl)propan-2-ol]"
10,< 1000 nM,"CCS(=O)(=O)c1cccc(-c2ccc(-n3cc(C(C)(C)O)nc3-c3ccccc3C(C)C)c(C)c2)c1 [Example 196, 2-(1-(3′-(ethylsulfonyl)-3-methyl-biphenyl-4-yl)-2-(2-isopropyl-phenyl)-1H-imidazol-4-yl)propan-2-ol]"
11,< 1000 nM,"Cc1cc(-c2cccc(S(C)(=O)=O)c2)ccc1-c1nc(C(C)(C)O)cn1-c1c(Cl)cccc1Cl [Example 197, 2-(1-(2,6-dichlorophenyl)-2-(3-methyl-3′-(methylsulfonyl)biphenyl-4-yl)-1H-imidazol-4-yl)propan-2-ol]"
12,< 1000 nM,"CC(C)(O)c1cn(-c2ccc(-c3cccc(S(C)(=O)=O)c3)cc2)c(-c2ccccc2C(F)(F)F)n1 [Example 198, 2-{1-[3′-(methylsulfonyl)biphenyl-4-yl]-2-[2-(trifluoromethyl)phenyl]-1H-imidazol-4-yl}propan-2-ol]"
13,1000 to 10000 nM,"CC(C)(O)c1cn(-c2ccc(-c3ccc(S(C)(=O)=O)cc3)cc2)c(-c2ccccc2C(F)(F)F)n1 [Example 199, 2-{1-[4′-(methylsulfonyl)biphenyl-4-yl]-2-[2-(trifluoromethyl)phenyl]-1H-imidazol-4-yl}propan-2-ol]"
14,< 1000 nM,"CCS(=O)(=O)c1cccc(-c2ccc(-n3cc(C(C)(C)O)nc3-c3ccccc3C(F)(F)F)cc2)c1 [Example 200, 2-{1-[3′-(ethylsulfonyl)biphenyl-4-yl]-2-[2-(trifluoromethyl)phenyl]-1H-imidazol-4-yl}propan-2-ol]"
15,< 1000 nM,"CC(C)(O)c1cn(-c2cccc(-c3cccc(S(C)(=O)=O)c3)c2)c(-c2ccccc2C(F)(F)F)n1 [Example 201, 2-{1-[3′-(methylsulfonyl)biphenyl-3-yl]-2-[2-(trifluoromethyl)phenyl]-1H-imidazol-4-yl}propan-2-ol]"
